The test system of this experiment is MCH receptors. Description: MCH receptor activity class (method not given). To be noted: class by percent of control at 10^-7 M or IC50.

For `Cc1cc(C(=O)NC[C@H]2CC[C@@H](Nc3cc(N(C)C)c4ccccc4n3)CC2)ccc1[N+](=O)[O-]` [compound 803, N-[(cis-4-{[4-(dimethylamino)quinolin-2-yl]amino}cyclohexyl)methyl]-3-methyl-4-nitrobenzamide], the class is given as 3 (Class 3 The value of percent of control at 10^−7 M was more than 60% or the value of IC50 was more than 200 nM.). For the compound `COc1cc(C(=O)NC[C@H]2CC[C@@H](Nc3cc(N(C)C)c4ccccc4n3)CC2)ccc1[N+](=O)[O-]` [compound 804, N-[(cis-4-{[4-(dimethylamino)quinolin-2-yl]amino}cyclohexyl)methyl]-3-methoxy-4-nitrobenzamide], the class was 3 (Class 3 The value of percent of control at 10^−7 M was more than 60% or the value of IC50 was more than 200 nM.). For `CN(C)c1cc(N[C@H]2CC[C@@H](CNC(=O)c3cn(Cc4ccccc4)c4ccccc34)CC2)nc2ccccc12` [compound 805], the class is 3 (Class 3 The value of percent of control at 10^−7 M was more than 60% or the value of IC50 was more than 200 nM.). Regarding `CN(C)c1cc(N[C@H]2CC[C@@H](CNC(=O)CC3=CCCCC3)CC2)nc2ccccc12` [compound 806], the class is recorded as 3 (Class 3 The value of percent of control at 10^−7 M was more than 60% or the value of IC50 was more than 200 nM.). `CN(C)c1cc(N[C@H]2CC[C@@H](CNC(=O)Cc3ccccc3OC(F)(F)F)CC2)nc2ccccc12` [compound 808]: the class is given as 3 (Class 3 The value of percent of control at 10^−7 M was more than 60% or the value of IC50 was more than 200 nM.). Turning to `Cc1cc(C(=O)NC[C@H]2CC[C@@H](Nc3cc(N(C)C)c4ccccc4n3)CC2)cc(C)c1OCc1ccccc1` [compound 809], the class was 3 (Class 3 The value of percent of control at 10^−7 M was more than 60% or the value of IC50 was more than 200 nM.). In the case of `CN(C)c1cc(N[C@H]2CC[C@@H](CNC(=O)C3c4ccccc4Oc4ccccc43)CC2)nc2ccccc12` [compound 810], the class is listed as 3 (Class 3 The value of percent of control at 10^−7 M was more than 60% or the value of IC50 was more than 200 nM.).

On to `CN(C)c1cc(N[C@H]2CC[C@@H](CNC(=O)Cc3csc4ccccc34)CC2)nc2ccccc12` [compound 811], for which the class is reported as 3 (Class 3 The value of percent of control at 10^−7 M was more than 60% or the value of IC50 was more than 200 nM.). Under `CN(C)c1ccnc(N[C@H]2CC[C@@H](NC(=O)c3ccc(Br)s3)CC2)n1` [compound 812] stands 3 (Class 3 The value of percent of control at 10^−7 M was more than 60% or the value of IC50 was more than 200 nM.); under `CN(C)c1ccnc(N[C@H]2CC[C@@H](NC(=O)Cc3c(Cl)ccc(Cl)c3Cl)CC2)n1` [compound 813], 3 (Class 3 The value of percent of control at 10^−7 M was more than 60% or the value of IC50 was more than 200 nM.). Regarding `CN(C)c1ccnc(N[C@H]2CC[C@@H](NC(=O)Cc3ccc(F)cc3Cl)CC2)n1` [compound 814], the class was 3 (Class 3 The value of percent of control at 10^−7 M was more than 60% or the value of IC50 was more than 200 nM.). Regarding `CN(C)c1ccnc(N[C@H]2CC[C@@H](NC(=O)c3ccc(-c4ccc(Cl)cc4[N+](=O)[O-])o3)CC2)n1` [compound 815, 5-(4-chloro-2-nitrophenyl)-N-(cis-4-{[4-(dimethylamino)pyrimidin-2-yl]amino}cyclohexyl)-2-furamide], the class is 1 (Class 1: The value of percent of control at 10^−7 M was less than 40% or the value of IC50 was less than 50 nM.).

`CN(C)c1ccnc(N[C@H]2CC[C@@H](NC(=O)c3ccc(Cl)s3)CC2)n1` [compound 816]: the class was 3 (Class 3 The value of percent of control at 10^−7 M was more than 60% or the value of IC50 was more than 200 nM.). Take `CN(C)c1ccnc(N[C@H]2CC[C@@H](NC(=O)CCc3ccccc3O)CC2)n1` [compound 818]: the class is reported as 3 (Class 3 The value of percent of control at 10^−7 M was more than 60% or the value of IC50 was more than 200 nM.). In the case of `CN(C)c1ccnc(N[C@H]2CC[C@@H](NC(=O)c3ccc(I)o3)CC2)n1` [compound 819, N-(cis-4-{[4-(dimethylamino)pyrimidin-2-yl]amino}cyclohexyl)-5-iodo-2-furamide], the class is recorded as 2 (Class 2: The value of percent of control at 10^−7 M was from 40% to 60% or the value of IC′50 was from 50 nM to 200 nM.). On to `CN(C)c1ccnc(N[C@H]2CC[C@@H](NC(=O)Cc3ccccc3I)CC2)n1` [compound 820], for which the class is listed as 3 (Class 3 The value of percent of control at 10^−7 M was more than 60% or the value of IC50 was more than 200 nM.). With `COc1ccc2[nH]c(C)c(CC(=O)N[C@H]3CC[C@@H](Nc4nccc(N(C)C)n4)CC3)c2c1` [compound 821] the figure was 3 (Class 3 The value of percent of control at 10^−7 M was more than 60% or the value of IC50 was more than 200 nM.). For `CN(C)c1ccnc(N[C@H]2CC[C@@H](NC(=O)/C=C/c3cccc([N+](=O)[O-])c3)CC2)n1` [compound 822], the class is given as 3 (Class 3 The value of percent of control at 10^−7 M was more than 60% or the value of IC50 was more than 200 nM.). Consider `CN(C)c1ccnc(N[C@H]2CC[C@@H](NC(=O)c3ccccc3Cc3ccccc3)CC2)n1` [compound 824], for which the class is listed as 3 (Class 3 The value of percent of control at 10^−7 M was more than 60% or the value of IC50 was more than 200 nM.). On to `CN(C)c1ccnc(N[C@H]2CC[C@@H](NC(=O)C(c3ccc(Cl)cc3)c3ccc(Cl)cc3)CC2)n1` [compound 825], for which the class is given as 3 (Class 3 The value of percent of control at 10^−7 M was more than 60% or the value of IC50 was more than 200 nM.).

Take `Cc1ccc(-c2ccc(C(=O)N[C@H]3CC[C@@H](Nc4nccc(N(C)C)n4)CC3)o2)c([N+](=O)[O-])c1` [compound 826, N-(cis-4-{[4-(dimethylamino)pyrimidin-2-yl]amino}cyclohexyl)-5-(4-methyl-2-nitrophenyl)-2-furamide]: the class is on record as 2 (Class 2: The value of percent of control at 10^−7 M was from 40% to 60% or the value of IC′50 was from 50 nM to 200 nM.). In the case of `CN(C)c1ccnc(N[C@H]2CC[C@@H](NC(=O)c3ccc([N+](=O)[O-])s3)CC2)n1` [compound 827, N-(cis-4-{[4-(dimethylamino)pyrimidin-2-yl]amino}cyclohexyl)-5-nitrothiophene-2-carboxamide], the class is given as 2 (Class 2: The value of percent of control at 10^−7 M was from 40% to 60% or the value of IC′50 was from 50 nM to 200 nM.).

On to `Cc1cc(C(=O)N[C@H]2CC[C@@H](Nc3nccc(N(C)C)n3)CC2)ccc1[N+](=O)[O-]` [compound 828, N-(cis-4-{[4-(dimethylamino)pyrimidin-2-yl]amino}cyclohexyl)-3-methyl-4-nitrobenzamide], for which the class is 2 (Class 2: The value of percent of control at 10^−7 M was from 40% to 60% or the value of IC′50 was from 50 nM to 200 nM.).

For `COc1cc(C(=O)N[C@H]2CC[C@@H](Nc3nccc(N(C)C)n3)CC2)ccc1[N+](=O)[O-]` [compound 829, N-(cis-4-{[4-(dimethylamino)pyrimidin-2-yl]amino}cyclohexyl)-3-methoxy-4-nitrobenzamide], the class is on record as 1 (Class 1: The value of percent of control at 10^−7 M was less than 40% or the value of IC50 was less than 50 nM.).

The values are drawn from patent US20050197350A1, “Novel quinoline, tetrahydroquinazoline, and pyrimidine derivatives and methods of treatment related to the use thereof” (TAISHO PHARMACEUTICAL CO., LTD., priority 2003, published 2005).
